Results on two molecules are retold here after patent publication US20260223849A1, “FUNGICIDAL COMBINATION” (UPL MAURITIUS LIMITED, priority 2023, published 2026).

The assay relates to Zymoseptoria tritici (Septoria tritici). The assay can be described thus: Efficacy against Zymoseptoria tritici (SEPTTR) on wheat, two applications (stages A and B). Format: in vivo. Particulars: prothioconazole 520 mL/ha (130 g A/ha), fluxapyroxad 1424 mL/ha (89 g A/ha). The protocol: The following formula was used to calculate the expected activity of mixtures containing active ingredients, A and B:
[formula] • where A=observed efficacy of active ingredient A at the same concentration as used in the mixture. • B=observed efficacy of active ingredient B at the same concentration as used in the mixture.
In the Colby method, the expected (or predicted) response of a combination of fungicides is calculated by taking the product of the observed response for each individual component of the combination when applied alone divided by 100 and subtracting this value from the sum of the observed response for each component when applied alone. An unexpected enhancement in efficacy of the combination is then determined by comparing the observed response of the combination to the expected (or predicted) response as calculated from the observed response of each individual component alone. If the observed response of the combination is greater than the expected (or predicted) response, or stated conversely, if the difference between the observed and expected response is greater than zero, then the combination is said to be synergistic or unexpectedly effective.
Efficacy of the combination of prothioconazole and fluxapyroxad was determined against Zymoseptoria tritici (Septoria tritici) in wheat crop. The actives prothioconazole and fluxapyroxad were tank mixed and applied as per the table below. Prothioconazole and fluxapyroxad were emulsifiable concentrate formulations with formulation concentrations of 250 g/L and 62.5 g/L, respectively. The applications were made twice at stages ‘A and ‘B’. Stage A was the time at which the first node was at least 1 cm above tillering node (Feekes 6.0=First node visible). Stage ‘B’ was the Flag leaf stage, wherein the flag leaf fully unrolled and ligule was visible (Feekes 9.0=Flag leaf). Applications were made at stage B which was 18 days after application A. The observations were made at 19 DA-A (19 days after application-A) as observed in table 1 (b) and at 23 DA-B (23 days after application B) as observed in Table 1 (c).

[1] abbreviates: 19 DA-A (19 days after application A).
The mark [2] stands for this setting: 23 DA-B (23 days after application B).

For `Cn1cc(C(=O)Nc2ccccc2-c2cc(F)c(F)c(F)c2)c(C(F)F)n1` [Fluxapyroxad, 3-(difluoromethyl)-1-methyl-N-(3′,4′,5′-trifluorobiphenyl-2-yl) pyrazole-4-carboxamide], the “% Observed Control of Septoria tritici” value under setting [1] is recorded as 25.6% and the “% Observed Control of Septoria tritici” value under setting [2] came out at 37.8%.
As to `OC(Cc1ccccc1Cl)(Cn1[nH]cnc1=S)C1(Cl)CC1` (stereo not shown) [Prothioconazole, 2-[2-(1-chlorocyclopropyl)-3-(2-chlorophenyl)-2-hydroxypropyl]-1,2-dihydro-3H-1,2,4-triazole-3-thione], the “% Observed Control of Septoria tritici” value amounted to 23.7% under setting [1] and 20.0% under setting [2].
